Measured values published in ChEMBL document CHEMBL1156950, “Synthesis and biological evaluation of 4-anilinoquinolines as potent inhibitors of epidermal growth factor receptor” (J Med Chem, 2010).
Active and inactive are the calls of the source. The rule behind the calls is not given here.

Experiments:
[1] = cells; conditions: Mus musculus, BaF3, 96 h
[2] = cells; conditions: Mus musculus, BaF3, 96 h; remark: listed apart in the source
Description: Growth inhibition of mouse BA/F3 cells expressing EGFR Del1 and Thr790Met mutant after 96 hrs by cell titer-glo assay

[3] = cells; conditions: Mus musculus, BaF3, 96 h; remark: listed apart in the source
Description: Growth inhibition of mouse BA/F3 cells expressing EGFR Del3 mutant after 96 hrs by cell titer-glo assay

[4] = cells; conditions: Mus musculus, BaF3, 96 h; remark: listed apart in the source
[5] = cells; conditions: Mus musculus, BaF3, 96 h; remark: listed apart in the source
Description: Growth inhibition of mouse BA/F3 cells expressing EGFR Del3 and Thr790Met mutant after 96 hrs by cell titer-glo assay

[6] = cells; conditions: Mus musculus, BaF3, 96 h; remark: listed apart in the source
Description: Growth inhibition of mouse BA/F3 cells expressing EGFR Del5 mutant after 96 hrs by cell titer-glo assay

[7] = system: PC-9; assay: Cytotoxicity against human PC9 cells expressing 746-750 sequence deleted EGFR assessed as cell viability at 0.001 to 10 uM after 96 hrs by cell titer-glo assay; assay type: functional, cell-based
[8] = cells; conditions: Mus musculus, BaF3, 96 h; remark: listed apart in the source
Description: Growth inhibition of mouse BA/F3 cells expressing EGFR Del1 mutant after 96 hrs by cell titer-glo assay

[9] = cells; conditions: Mus musculus, BaF3, 96 h; remark: listed apart in the source
Description: Growth inhibition of mouse BA/F3 cells expressing EGFR Del5 and Thr790Met mutant after 96 hrs by cell titer-glo assay

[10] = system: NCI-H1975; assay: Cytotoxicity against human NCI-H1975 cells expressing EGFR T790M and L858R mutant at 0.001 to 10 uM after 96 hrs by cell titer-glo assay; assay type: functional, cell-based
[11] = target: Epidermal growth factor receptor (Homo sapiens, UniProt P00533, L858R); assay: Inhibition of EGFR Leu858Arg mutant by HTRF assay; assay type: protein assay
[12] = target: Epidermal growth factor receptor (Homo sapiens, UniProt P00533, L858R/T790M); assay: Inhibition of EGFR Leu858Arg and Thr790Met mutant by HTRF assay; assay type: protein assay
[13] = target: T1, Epidermal growth factor receptor (Homo sapiens, UniProt P00533); assay: Inhibition of wild type EGFR by HTRF assay
[14] = target: T1, Epidermal growth factor receptor; assay: Inhibition of 746-750 sequence deleted EGFR autophosphorylation in human PC9 cells after 24 hrs by immunoblotting; assay type: cell-based; conditions: PC-9

Epidermal growth factor receptor (Homo sapiens, UniProt P00533, L858R/T790M), sequence (P00533 25-1210 T790M/L858R limits assumed): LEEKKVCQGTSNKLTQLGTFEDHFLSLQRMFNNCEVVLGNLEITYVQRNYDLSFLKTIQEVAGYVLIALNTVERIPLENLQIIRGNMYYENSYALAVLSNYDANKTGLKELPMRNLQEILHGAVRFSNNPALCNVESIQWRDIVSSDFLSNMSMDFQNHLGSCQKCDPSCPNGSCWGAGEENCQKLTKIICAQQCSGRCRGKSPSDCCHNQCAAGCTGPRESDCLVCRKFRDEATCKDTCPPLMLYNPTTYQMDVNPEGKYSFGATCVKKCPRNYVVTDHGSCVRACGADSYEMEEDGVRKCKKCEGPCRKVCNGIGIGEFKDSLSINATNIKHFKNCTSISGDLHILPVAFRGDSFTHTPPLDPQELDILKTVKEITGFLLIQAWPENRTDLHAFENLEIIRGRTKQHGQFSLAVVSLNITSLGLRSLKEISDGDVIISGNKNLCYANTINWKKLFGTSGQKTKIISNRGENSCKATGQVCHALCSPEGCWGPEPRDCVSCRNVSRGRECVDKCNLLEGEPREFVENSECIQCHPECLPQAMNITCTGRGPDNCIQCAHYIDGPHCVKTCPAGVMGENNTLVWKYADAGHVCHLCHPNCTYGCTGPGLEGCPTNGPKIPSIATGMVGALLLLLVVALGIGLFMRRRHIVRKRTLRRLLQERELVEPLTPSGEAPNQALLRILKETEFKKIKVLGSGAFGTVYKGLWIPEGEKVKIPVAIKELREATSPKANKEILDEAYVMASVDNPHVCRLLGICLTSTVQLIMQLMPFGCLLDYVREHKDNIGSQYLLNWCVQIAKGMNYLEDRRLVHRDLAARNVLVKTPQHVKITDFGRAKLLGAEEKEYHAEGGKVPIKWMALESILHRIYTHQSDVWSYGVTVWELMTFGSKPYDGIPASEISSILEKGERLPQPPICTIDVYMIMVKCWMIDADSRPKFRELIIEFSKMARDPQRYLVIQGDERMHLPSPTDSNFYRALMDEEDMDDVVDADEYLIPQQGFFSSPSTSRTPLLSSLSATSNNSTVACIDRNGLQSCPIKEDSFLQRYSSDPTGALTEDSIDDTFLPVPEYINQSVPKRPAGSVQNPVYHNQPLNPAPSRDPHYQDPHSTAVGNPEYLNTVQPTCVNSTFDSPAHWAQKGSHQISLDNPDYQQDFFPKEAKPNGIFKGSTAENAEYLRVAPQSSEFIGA
Epidermal growth factor receptor (Homo sapiens, UniProt P00533, L858R), sequence (P00533 25-1210 L858R limits assumed): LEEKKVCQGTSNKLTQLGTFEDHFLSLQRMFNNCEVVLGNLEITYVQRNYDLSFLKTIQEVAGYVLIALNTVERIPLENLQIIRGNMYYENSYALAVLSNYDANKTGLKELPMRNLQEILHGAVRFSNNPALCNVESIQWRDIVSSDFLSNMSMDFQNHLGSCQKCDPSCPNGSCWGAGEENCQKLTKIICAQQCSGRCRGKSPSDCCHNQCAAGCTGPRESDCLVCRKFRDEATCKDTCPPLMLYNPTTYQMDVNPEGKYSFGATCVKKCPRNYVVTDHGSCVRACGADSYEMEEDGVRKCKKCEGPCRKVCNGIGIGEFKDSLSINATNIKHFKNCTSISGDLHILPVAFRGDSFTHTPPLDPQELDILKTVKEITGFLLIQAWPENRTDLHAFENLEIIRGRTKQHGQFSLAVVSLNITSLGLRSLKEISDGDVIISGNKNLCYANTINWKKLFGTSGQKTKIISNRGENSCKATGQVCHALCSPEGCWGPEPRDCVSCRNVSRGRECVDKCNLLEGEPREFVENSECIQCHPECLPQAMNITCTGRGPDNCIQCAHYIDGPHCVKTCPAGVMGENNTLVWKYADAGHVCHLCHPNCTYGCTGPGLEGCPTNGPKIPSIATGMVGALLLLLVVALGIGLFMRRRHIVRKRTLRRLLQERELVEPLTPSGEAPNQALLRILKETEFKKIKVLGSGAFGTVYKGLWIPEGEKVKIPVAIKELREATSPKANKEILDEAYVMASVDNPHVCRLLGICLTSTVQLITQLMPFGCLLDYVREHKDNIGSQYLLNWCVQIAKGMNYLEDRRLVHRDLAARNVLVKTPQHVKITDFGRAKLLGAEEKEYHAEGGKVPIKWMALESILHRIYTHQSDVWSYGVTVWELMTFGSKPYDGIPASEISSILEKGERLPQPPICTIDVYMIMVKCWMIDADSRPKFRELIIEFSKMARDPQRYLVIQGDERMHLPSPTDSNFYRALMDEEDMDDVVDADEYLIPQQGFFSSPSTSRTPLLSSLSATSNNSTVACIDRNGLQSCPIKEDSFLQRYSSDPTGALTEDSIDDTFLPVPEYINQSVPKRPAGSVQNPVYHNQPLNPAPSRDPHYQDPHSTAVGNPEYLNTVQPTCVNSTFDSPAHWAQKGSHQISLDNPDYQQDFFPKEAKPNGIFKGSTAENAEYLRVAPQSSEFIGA
T1 sequence (P00533 whole entry): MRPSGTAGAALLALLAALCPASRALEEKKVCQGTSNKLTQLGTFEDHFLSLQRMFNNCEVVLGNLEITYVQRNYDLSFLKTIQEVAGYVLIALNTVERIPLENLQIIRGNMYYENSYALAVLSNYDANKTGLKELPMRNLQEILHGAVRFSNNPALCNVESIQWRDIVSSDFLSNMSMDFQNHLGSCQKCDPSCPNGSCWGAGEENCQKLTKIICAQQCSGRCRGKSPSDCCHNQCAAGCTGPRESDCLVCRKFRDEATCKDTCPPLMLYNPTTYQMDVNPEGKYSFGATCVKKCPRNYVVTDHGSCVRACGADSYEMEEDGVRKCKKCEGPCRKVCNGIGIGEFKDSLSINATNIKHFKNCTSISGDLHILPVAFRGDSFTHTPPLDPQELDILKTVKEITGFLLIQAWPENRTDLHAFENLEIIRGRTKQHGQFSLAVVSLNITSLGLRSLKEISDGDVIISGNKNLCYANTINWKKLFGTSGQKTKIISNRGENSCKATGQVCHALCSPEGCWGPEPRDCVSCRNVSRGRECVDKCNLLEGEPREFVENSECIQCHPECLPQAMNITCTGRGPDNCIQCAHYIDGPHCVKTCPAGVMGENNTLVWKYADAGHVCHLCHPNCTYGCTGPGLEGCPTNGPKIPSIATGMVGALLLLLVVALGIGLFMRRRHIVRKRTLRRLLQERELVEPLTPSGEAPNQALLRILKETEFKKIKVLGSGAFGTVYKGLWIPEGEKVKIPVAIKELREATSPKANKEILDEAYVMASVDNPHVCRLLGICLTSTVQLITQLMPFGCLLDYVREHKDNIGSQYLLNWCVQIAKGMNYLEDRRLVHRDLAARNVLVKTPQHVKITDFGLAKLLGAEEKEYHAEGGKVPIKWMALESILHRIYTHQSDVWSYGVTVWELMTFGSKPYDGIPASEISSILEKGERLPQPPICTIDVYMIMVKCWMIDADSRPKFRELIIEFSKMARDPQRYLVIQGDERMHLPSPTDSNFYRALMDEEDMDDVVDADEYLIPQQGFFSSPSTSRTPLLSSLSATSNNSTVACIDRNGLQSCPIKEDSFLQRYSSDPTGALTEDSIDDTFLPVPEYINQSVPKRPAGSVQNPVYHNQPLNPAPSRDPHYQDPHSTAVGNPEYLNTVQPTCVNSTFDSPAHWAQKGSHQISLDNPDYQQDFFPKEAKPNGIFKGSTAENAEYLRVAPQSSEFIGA

SMILES	GI50 [1]	GI50 [2]	GI50 [3]	GI50 [4]	GI50 [5]	GI50 [6]	Activity [7]	GI50 [8]	GI50 [9]	Activity [10]	IC50 [11]	IC50 [12]	IC50 [13]	Activity [14]
C#Cc1cccc(Nc2ncnc3cc(OCCOC)c(OCCOC)cc23)c1 [ERLOTINIB]	< 500 nM	> 5000 nM	< 500 nM	> 5000 nM	> 5000 nM	< 500 nM	Active	< 500 nM	> 5000 nM	Active	–	–	–	–
C=CC(=O)Nc1ccc2ncnc(Nc3cccc(Br)c3)c2c1	< 500 nM	> 500 nM	< 500 nM	< 500 nM	< 500 nM	< 500 nM	–	< 500 nM	< 500 nM	–	–	–	–	–
C#Cc1cccc(Nc2ccnc3cc(OC)c(OC)cc23)c1	< 500 nM	> 5000 nM	< 500 nM	> 5000 nM	> 5000 nM	< 500 nM	–	< 500 nM	> 5000 nM	–	4 nM	1500 nM	19 nM	–
C#Cc1cccc(Nc2ccnc3cc(OCCOC)c(OCCOC)cc23)c1	< 500 nM	> 500 nM	> 500 nM	> 500 nM	> 500 nM	> 5000 nM	–	< 500 nM	> 5000 nM	–	14 nM	1500 nM	30 nM	–
C#Cc1cccc(Nc2ncnc3cc(OC)c(OC)cc23)c1	< 500 nM	> 500 nM	< 500 nM	> 5000 nM	> 5000 nM	< 500 nM	–	< 500 nM	> 5000 nM	–	< 1 nM	140 nM	< 1 nM	–
C=CC(=O)Nc1ccc2nccc(Nc3cccc(Br)c3)c2c1	< 500 nM	> 500 nM	< 500 nM	> 500 nM	> 500 nM	< 500 nM	Active	< 500 nM	> 500 nM	Active	< 1 nM	3.2 nM	< 1 nM	Dose-dependent effect
CCC(=O)Nc1ccc2nccc(Nc3cccc(Br)c3)c2c1	> 500 nM	> 500 nM	< 500 nM	> 500 nM	> 500 nM	> 500 nM	–	< 500 nM	> 500 nM	–	–	–	–	–
